From patent publication US20100056516A1 (priority 2006, published 2010) come the findings set out here.

The target of experiment [1] is HIV integrase (Human immunodeficiency virus type 1 group M subtype B, UniProt P04585). The experiment can be described thus: integrase strand transfer assay (STA). It is filed as biochemical. The settings on record: integrase strand transfer; read-out: IC50 in the STA assay.
Experiment [2] has as its system HXB2 virus. Description: microbe, parasite or virus in culture. It is filed as cell-based, HIV. The settings on record: Human immunodeficiency virus 1, HXB2, HeLaP4-2, read-out: antiviral IC50 (SCIA-B). The method, boiled down: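 HXB2 virus used to infect HeLa P4-2 cells in a single-cycle format; inhibition of acute infection is measured.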

Structures can show the parent of a compound that is named as a salt.

For `CCOC(=O)c1ccnc2c1c(O)cc(=O)n2O` [Example 88, Ethyl 5,8-dihydroxy-7-oxo-7,8-dihydro-1,8-naphthyridine-4-carboxylate], the IC50 in experiment [1] is under 50 µM; in experiment [2] it was under 100 µM.
The like results for `C[C@@H](Nc1cc(=O)n(O)c2ncccc12)c1ccccc1` [Example 125, 1-hydroxy-4-{[(1R)-1-phenylethyl]amino}-1,8-naphthyridin-2(1H)-one] were, in that order, under 50 µM and under 100 µM.
The like results for `CCOC(=O)c1c(O)c2cc(C(=O)N(C)Cc3ccccc3)cnc2n(O)c1=O` [Example 80, Ethyl 6-{[benzyl(methyl)amino]carbonyl}-1,4-dihydroxy-2-oxo-1,2-dihydro-1,8-naphthyridine-3-carboxylate] were, in that order, under 50 µM and under 100 µM.
The corresponding values for `O=c1cc(N[C@H]2CCN(Cc3ccccc3)C2)c2cccnc2n1O` [Example 114, 4-{[(3S)-1-Benzylpyrrolidin-3-yl]amino}-1-hydroxy-1,8-naphthyridin-2(1H)-one] are under 50 µM and under 100 µM.
In the case of `O=C(Nc1ccccc1OCc1ccccn1)c1c(O)c2cccnc2n(O)c1=O` [Example 15, 1,4-Dihydroxy-2-oxo-N-[2-(pyridin-2-ylmethoxy)phenyl]-1,2-dihydro-1,8-naphthyridine-3-carboxamide, hydrochloric acid salt], the figures for the IC50 in experiment [1] and in experiment [2] were under 50 µM and over 100 µM, respectively.
As for `O=c1cc(-c2cccc(O)c2)c2cccnc2n1O` [Example 237, 1-hydroxy-4-(3-hydroxyphenyl)-1,8-naphthyridin-2(1H)-one], the IC50 is under 50 µM in experiment [1] and under 100 µM in experiment [2].
The corresponding values for `CC(c1ccc(-c2cc(=O)n(O)c3ncccc23)cc1)N1CCOCC1` (centres unmarked) [Example 174, 1-hydroxy-4-[4-(1-morpholin-4-ylethyl)phenyl]-1,8-naphthyridin-2(1H)-one] are under 50 µM and under 100 µM.
The like results for `NC(=O)c1cccc(-c2cc(=O)n(O)c3ncccc23)c1` [Example 196, 3-(1-hydroxy-2-oxo-1,2-dihydro-1,8-naphthyridin-4-yl)benzamide] were, in that order, under 50 µM and under 100 µM.
The corresponding values for `O=c1c(-c2ccccc2O)c(O)c2cccnc2n1O` [Example 46, 1,4-dihydroxy-3-(2-hydroxyphenyl)-1,8-naphthyridin-2(1H)-one] are under 50 µM and under 100 µM.
Regarding `O=C(NCc1ccc(F)cc1)c1c(O)c2cccnc2n(O)c1=O` [Example 18, N-(4-Fluorobenzyl)-1,4-dihydroxy-2-oxo-1,2-dihydro-1,8-naphthyridine-3-carboxamide], the 50% inhibitory concentration (IC50) in experiment [1] is under 50 µM; in experiment [2], under 100 µM.
For `CCOC(=O)c1c(O)c2cc(-c3cccc(OC)c3)cnc2n(O)c1=O` [Example 62, Ethyl 1,4-dihydroxy-6-(3-methoxyphenyl)-2-oxo-1,2-dihydro-1,8-naphthyridine-3-carboxylate], the results for the IC50 in experiment [1] and in experiment [2] were under 50 µM and under 100 µM, respectively.
The corresponding values for `O=c1cc(NCc2ccncc2)c2cccnc2n1O` [Example 160, 1-hydroxy-4-[(4-pyridinylmethyl)amino]-1,8-naphthyridin-2 (1H-one)] are under 50 µM and under 100 µM.
The corresponding values for `O=c1c(-c2ccccc2)c(O)c2cc(/C=C/c3ccccc3)cnc2n1O` [Example 55, 1,4-Dihydroxy-3-phenyl-6-[(E)-2-phenylvinyl]-1,8-naphthyridin-2(1H)-one] are under 50 µM and under 100 µM.
The corresponding values for `O=c1c(-c2ccccc2)c(O)c2cccnc2n1O` [Example 30, 1,4-Dihydroxy-3-phenyl-1,8-naphthyridin-2-(1H)-one] are under 50 µM and under 100 µM.
For the molecule `O=c1cc(Nc2ccccc2)c2cccnc2n1O` [Example 103, 4-Anilino-1-hydroxy-1,8-naphthyridin-2(1H)-one], the IC50 in experiment [1] is under 50 µM; in experiment [2], under 100 µM.
The like results for `O=c1c(-c2ccccc2)c(O)c2cc(-c3ccc4ccccc4c3)cnc2n1O` [Example 56, 1,4-Dihydroxy-6-(2-naphthyl)-3-phenyl-1,8-naphthyridin-2(1H)-one] were, in that order, under 50 µM and under 100 µM.
As to `CN(C(=O)c1c(O)c2cccnc2n(O)c1=O)C1CCNC1` (centres unmarked) [Example 215, 1,4-Dihydroxy-N-methyl-2-oxo-N-pyrrolidin-3-yl-1,2-dihydro-1,8-naphthyridine-3-carboxamide], the half-maximal inhibitory concentration (IC50) in experiment [1] is under 50 µM; in experiment [2], under 100 µM.
The like results for `CCOC(=O)c1c(O)c2cc(C(=O)NCc3ccccc3)cnc2n(O)c1=O` [Example 77, Ethyl 6-[(benzylamino)carbonyl]-1,4-dihydroxy-2-oxo-1,2-dihydro-1,8-naphthyridine-3-carboxylate] were, in that order, under 50 µM and under 100 µM.
As to `O=c1c(-c2ccccc2F)c(O)c2cccnc2n1O` [Example 32, 3-(2-Fluorophenyl)-1,4-dihydroxy-1,8-naphthyridin-2(1H)-one], the 50% inhibitory concentration (IC50) in experiment [1] is under 50 µM; in experiment [2] it was under 100 µM.
The like results for `O=C(CN1CCN(Cc2cccc(-c3cc(=O)n(O)c4ncccc34)c2)CC1)N1CCOCC1` [Example 211, 1-hydroxy-4-[3-({4-[2-(4-morpholinyl)-2-oxoethyl]-1-piperazinyl}methyl)phenyl]-1,8-naphthyridin-2(1H-one)] were, in that order, under 50 µM and under 100 µM.
The like results for `CCOC(=O)c1c(O)c2cc(-c3ccccc3)cnc2n(O)c1=O` [Example 49, Ethyl 1,4-dihydroxy-2-oxo-6-phenyl-1,2-dihydro-1,8-naphthyridine-3-carboxylate] were, in that order, under 50 µM and under 100 µM.
The like results for `Nc1cnc2c(c1)c(O)c(-c1ccccc1)c(=O)n2O` [Example 250, 6-amino-1,4-dihydroxy-3-phenyl-1,8-naphthyridin-2(1H)-one] were, in that order, under 50 µM and under 100 µM.
With `NCc1ccc(-c2cccc(Cc3cc(=O)n(O)c4ncccc34)c2)cc1` [Example 232, 4-{[4′-(aminomethyl)biphenyl-3-yl]methyl}-1-hydroxy-1,8-naphthyridin-2(1H)-one], the IC50 was under 50 µM in experiment [1] and under 100 µM in experiment [2].
The corresponding values for `COC(=O)c1cnc2c(c1)c(O)c(C(=O)NCc1ccccc1)c(=O)n2O` [Example 91, Methyl 6-[(benzylamino)carbonyl]-5,8-dihydroxy-7-oxo-7,8-dihydro-1,8-naphthyridine-3-carboxylate] are under 50 µM and under 100 µM.
The like results for `CCOC(=O)Cc1c(O)c2cccnc2n(O)c1=O` [Example 223, Ethyl (1,4-dihydroxy-2-oxo-1,2-dihydro-1,8-naphthyridin-3-yl)acetate] were, in that order, under 50 µM and under 100 µM.
The corresponding values for `O=C(Nc1cc(=O)n(O)c2ncccc12)c1ccccc1` [Example 102, N-(1-Hydroxy-2-oxo-1,2-dihydro-1,8-naphthyridin-4-yl)benzamide] are under 50 µM and under 100 µM.
Consider `Nc1ccc(-c2ccc3c(c2)CN(c2cc(=O)n(O)c4ncccc24)CC3)cc1` [Example 254, 4-[7-(4-aminophenyl)-3,4-dihydroisoquinolin-2(1H)-yl]-1-hydroxy-1,8-naphthyridin-2(1H)-one], for which the IC50 in experiment [1] was under 50 µM; in experiment [2], under 100 µM.
The corresponding values for `O=c1cc(N2CCCC(F)C2)c2cccnc2n1O` (centres unmarked) [Example 118, 4-(3-fluoropiperidin-1-yl)-1-hydroxy-1,8-naphthyridin-2(1H)-one] are under 50 µM and under 100 µM.
The corresponding values for `CC(Nc1cc(=O)n(O)c2ncccc12)c1ccccc1` (centres unmarked) [Example 157, 1-hydroxy-4-[(1-phenylethyl)amino]-1,8-naphthyridin-2(1H-one)] are under 50 µM and under 100 µM.
The like results for `O=c1c(-c2ccc(Br)cc2)c(O)c2cccnc2n1O` [Example 38, 3-(4-Bromophenyl)-1,4-dihydroxy-1,8-naphthyridin-2(1H)-one] were, in that order, under 50 µM and under 100 µM.
In the case of `CCOC(=O)c1c(O)c2cc(C(=O)N3CCCCC3CCc3ccccc3)cnc2n(O)c1=O` (centres unmarked) [Example 82, Ethyl 1,4-dihydroxy-2-oxo-6-{[2-(2-phenylethyl)piperidin-1-yl]carbonyl}-1,2-dihydro-1,8-naphthyridine-3-carboxylate], the values for the IC50 in experiment [1] and in experiment [2] were under 50 µM and under 100 µM, respectively.
The like results for `O=C(Nc1cccnc1)c1c(O)c2cccnc2n(O)c1=O` [Example 16, 1,4-Dihydroxy-2-oxo-N-pyridin-3-yl-1,2-dihydro-1,8-naphthyridine-3-carboxamide] were, in that order, under 50 µM and under 100 µM.
The corresponding values for `O=c1cc(N2CCN(Cc3ccccc3)CC2)c2cccnc2n1O` [Example 136, 4-(4-benzylpiperazin-1-yl)-1-hydroxy-1,8-naphthyridin-2(1H)-one] are under 50 µM and under 100 µM.
The like results for `CCOC(=O)c1c(N)c2cccnc2n(O)c1=O` [Example 97, Ethyl 4-amino-1-hydroxy-2-oxo-1,2-dihydro-1,8-naphthyridine-3-carboxylate] were, in that order, under 50 µM and under 100 µM.
With `O=c1cc(N2CCC[C@@H]2CF)c2cccnc2n1O` [Example 117, 4-[(2R)-2-(fluoromethyl)pyrrolidin-1-yl]-1-hydroxy-1,8-naphthyridin-2(1H)-one], the IC50 was under 50 µM in experiment [1] and under 100 µM in experiment [2].
For the molecule `O=c1cc(N2CCC(N3CCOCC3)CC2)c2cccnc2n1O` [Example 138, 1-hydroxy-4-[4-(4-morpholinyl)-1-piperidinyl]-1,8-naphthyridin-2(1H-one)], the concentration for half-maximal inhibition (IC50) in experiment [1] is under 50 µM; in experiment [2] it was under 100 µM.
Turning to `COc1ccccc1NC(=O)c1c(O)c2cccnc2n(O)c1=O` [Example 11, 1,4-Dihydroxy-N-(2-methoxyphenyl)-2-oxo-1,2-dihydro-1,8-naphthyridine-3-carboxamide], the IC50 in experiment [1] was under 50 µM; in experiment [2], under 100 µM.
